Measurements as given in article PMC8786951, “Identification of an allatostatin C signaling system in mollusc Aplysia” (Scientific Reports, 2022).
“And” between values parts separate entries of the source, which are not always exact repeats. Identical values can stand only once. Like-named read-outs stand apart in the source and are kept apart here. Where a SMILES comes first, the peptide text is derived from it. Bridges are numbered along the chain shown (N, C = ends).

Legend:
[1] = biological target: T1, AstC-R (Aplysia californica, UniProt A0ABM0JJJ7); experiment: IP1 accumulation assay, CHO-K1 cells expressing putative receptor AstC-R; type: cell-based; settings: for EC50: IP1 accumulation, CHO cells co-transfected with AstC-R and Gα16 plasmids, peptide 10^–12 M to 10^–4 M; for Screening: IP1 concentration on AstC-R at 10^–5 M vs 10^–10 M: CHO cells co-transfected with AstC-R and Gα16, 10^–10 M used as control, paired t-test, n = 6 (AstC' n = 5; AstCG-DP, SPTR n = 3); for IP1 response of AstC-R, preliminary experiments: CHO cells transfected with receptor plasmid only, without Gα16
T1 sequence (A0ABM0JJJ7 1-425): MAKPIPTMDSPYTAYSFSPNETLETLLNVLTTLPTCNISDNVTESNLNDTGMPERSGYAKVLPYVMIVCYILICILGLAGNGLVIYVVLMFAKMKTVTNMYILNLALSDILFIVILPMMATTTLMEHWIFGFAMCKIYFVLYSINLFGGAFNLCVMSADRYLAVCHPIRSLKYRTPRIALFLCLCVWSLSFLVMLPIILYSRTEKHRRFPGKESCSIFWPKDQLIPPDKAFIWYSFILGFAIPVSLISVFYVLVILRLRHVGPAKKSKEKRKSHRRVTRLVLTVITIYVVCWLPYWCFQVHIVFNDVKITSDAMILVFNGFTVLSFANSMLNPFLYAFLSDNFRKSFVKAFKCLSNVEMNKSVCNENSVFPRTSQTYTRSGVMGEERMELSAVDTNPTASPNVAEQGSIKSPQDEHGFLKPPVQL
From the text: Because Gα16 is a promiscuous Gαq protein that will bind to most GPCRs[10],[53], this procedure would ensure an IP1 response when a potential ligand binds to its GPCR.
Inositol monophosphate 1 (IP1) accumulation assay measures concentration of IP1, that is hydrolyzed from the second messenger, […] (IP3), generated by Gαq pathway when a G-protein coupled receptor (GPCR) expressed in CHO-K1 cells is activated by an appropriate ligand. In order to express the Aplysia putative receptors transiently in CHO-K1, the cDNA was cloned into the mammalian expression vector pcDNA3.1( +). […] Transfection experiments were performed when the cells were grown to 70–90% confluence. In preliminary experiments, for each dish (60-mm diameter), 4 μg of the putative receptor plasmids [in pcDNA3.1( +)] were mixed with 400 μl of Opti-MEM (Gibco, 11058021), followed by the addition of 15 μl of Turbofect (Thermo Fisher Scientific, R0531). […] The CHO cells with the reagents added above were mixed gently, and incubated at room temperature for 15 min. The DNA/Turbofect mixture dropwise was then added to the dish, and the cells were incubated at 37 °C in 5% CO2 overnight. The next day, the cells were trypsinized and reseeded in opaque white 96-well half-area (Corning, 3688) or 384-well tissue culture-treated plates (Corning, 3570) at a density of 20,000 cells/well in F-12K and 10% FBS and incubated at 37 °C in 5% CO2 overnight. On the third day, the activation of the putative receptor was detected by monitoring IP1 accumulation using IP1 detection kit (Cisbio, 62IPAPEB) in Tecan Spark. Except for using 0.5 × reagent, all other procedures were performed in accordance with the IP1 detection kit manufacturer’s instructions. Peptides are synthesized by Sangon Biotech, Guoping Pharmaceutical or ChinaPeptides (Supplementary Fig. 4), and are aliquoted in 50 nmol EP tubes, stored at −20 °C until use.

[2] = system: Class-A_GPCR1; experiment: IP1 accumulation assay, CHO-K1 cells expressing putative receptor Class-A_GPCR1 (control); type: cell-based, Aplysia californica; settings: CHO cells transfected with receptor plasmid only, without Gα16
From the text: We cloned AstC-R and Class-A_GPCR1 into pcDNA3.1 plasmids, and expressed them in CHO cells. We then used the IP1 accumulation assay that detects IP1 generated in the Gαq pathway (see Methods) to determine whether our predicted Aplysia peptides (i.e., AstC or AstCG-DP) and other related peptides which we synthesized (see Fig. 7G) could activate the receptors. In preliminary experiments, we only transfected plasmids for a putative receptor in CHO cells. […] Thus, for all the experiments shown in Fig. 7, we co-transfected plasmids for the putative receptor and Gα16 plasmids in CHO cells. Because Gα16 is a promiscuous Gαq protein that will bind to most GPCRs[10],[53], this procedure would ensure an IP1 response when a potential ligand binds to its GPCR.
Inositol monophosphate 1 (IP1) accumulation assay measures concentration of IP1, that is hydrolyzed from the second messenger, […] (IP3), generated by Gαq pathway when a G-protein coupled receptor (GPCR) expressed in CHO-K1 cells is activated by an appropriate ligand. In order to express the Aplysia putative receptors transiently in CHO-K1, the cDNA was cloned into the mammalian expression vector pcDNA3.1( +). […] On the third day, the activation of the putative receptor was detected by monitoring IP1 accumulation using IP1 detection kit (Cisbio, 62IPAPEB) in Tecan Spark. […]

[3] = biological target: Platynereis receptor; settings: annelid Platynereis dumerilii allatostatin C on its putative receptor; cited from earlier work
From the text: Growing databases of the Aplysia genome and transcriptome are becoming available, but relatively few studies have taken advantage of this information (see[53],[54]). […] Previous bioinformatic studies in several molluscs predicted the presence of an allatostatin C precursor (Fig. 3, e.g.,[57]) and of AstC with the ...

[4] = average EC50, n = 3, read-out: [EC50] on AstC-R
[5] = average log[EC50], n = 3, read-out: log[EC50] on AstC-R (converted)

Molecule	EC50 [1, 4]	EC50 [1, 5]	Screening: IP1 concentration on AstC-R at 10^–5 M vs 10^–10 M [1]	also measured
CC[C@H](C)[C@H](NC(=O)[C@H](Cc1c[nH]cn1)NC(=O)[C@@H](N)CO)C(=O)N[C@@H](CCCNC(=N)N)C(=O)N[C@H]1CSSC[C@@H](C(=O)N[C@@H](Cc2ccc(O)cc2)C(=O)O)NC(=O)[C@H](C)NC(=O)[C@H]([C@@H](C)CC)NC(=O)[C@H](C(C)C)NC(=O)[C@H](CC(N)=O)NC(=O)[C@H](C(C)C)NC(=O)[C@H](CC(C)C)NC1=O [AstC-C] (H-SHIRCLVNVIACY-OH; disulfide 5-12)	111 nM			
CSCC[C@H](NC(=O)[C@H](CO)NC(=O)[C@H](CO)NC(=O)[C@H](Cc1ccc(O)cc1)NC(=O)[C@@H](N)[C@@H](C)O)C(=O)N[C@H]1CSSC[C@@H](C(=O)N[C@@H](Cc2ccc(O)cc2)C(=O)O)NC(=O)[C@H](C)NC(=O)[C@H](C(C)C)NC(=O)[C@H](C(C)C)NC(=O)[C@H](CC(N)=O)NC(=O)[C@H](Cc2ccccc2)NC(=O)[C@H](CCSC)NC1=O [AstC-D] (H-TYSSMCMFNVVACY-OH; disulfide 6-13)	18.9 nM	15.8 nM		
CC[C@H](C)[C@@H]1NC(=O)[C@H](CC(C)C)NC(=O)[C@H](CC(N)=O)NC(=O)[C@H](C(C)C)NC(=O)[C@H](CC(C)C)NC(=O)[C@@H](NC(=O)[C@H](CCSC)NC(=O)[C@@H](NC(=O)[C@H](Cc2c[nH]cn2)NC(=O)[C@@H](N)CO)C(C)C)CSSC[C@@H](C(=O)N[C@@H](Cc2ccccc2)C(=O)O)NC(=O)[C@H](CO)NC1=O [AstC-L] (H-SHVMCLVNLISCF-OH; disulfide 5-12)	111 nM	63.1 nM		
CSCC[C@H](NC(=O)[C@H](CO)NC(=O)[C@H](CC(N)=O)NC(=O)[C@H](Cc1ccc(O)cc1)NC(=O)[C@H](Cc1c[nH]cn1)NC(=O)[C@@H](N)CO)C(=O)N[C@H]1CSSC[C@@H](C(=O)N[C@@H](Cc2ccc(O)cc2)C(=O)O)NC(=O)[C@H](C)NC(=O)[C@H](C(C)C)NC(=O)[C@H](C(C)C)NC(=O)[C@H](CC(N)=O)NC(=O)[C@H](Cc2ccccc2)NC(=O)[C@H](CCSC)NC1=O [AstC-T] (H-SHYNSMCMFNVVACY-OH; disulfide 7-14)	17.7 nM			
CSCC[C@H](NC(=O)[C@H](CO)NC(=O)[C@H](CO)NC(=O)[C@H](Cc1ccc(O)cc1)NC(=O)[C@H](Cc1c[nH]cn1)NC(=O)[C@@H](N)CO)C(=O)N[C@H]1CSSC[C@@H](C(=O)N[C@@H](Cc2ccc(O)cc2)C(=O)O)NC(=O)[C@H](C)NC(=O)[C@H](C(C)C)NC(=O)[C@H](C(C)C)NC(=O)[C@H](CC(N)=O)NC(=O)[C@H](Cc2ccccc2)NC(=O)[C@H](CCSC)NC1=O [AstC] (H-SHYSSMCMFNVVACY-OH; disulfide 7-14; N-terminus assumed)	7.8 nM	6.31 nM	significantly increased IP1 concentration	IP1 response of AstC-R, preliminary experiments [1]: none of the receptors responded; IP1 response of Class-A_GPCR1, preliminary experiments [2]: none of the receptors responded
AVIPVSSPEPMEEASALQLLPGKI-NH2 [AstCG-DP, AstC gene-derived peptide predicted from the Aplysia AstC precursor, C-terminally amidated]			did not activate AstC-R significantly	IP1 response of AstC-R, preliminary experiments [1]: none of the receptors responded; IP1 response of Class-A_GPCR1, preliminary experiments [2]: none of the receptors responded
MRYMG1CMKKQYNNF1PFPCLRS-NH2 (disulfide) [SPTR, another Aplysia peptide also with a disulfide bridge, reference compound]			did not activate AstC-R significantly	
pQPVQCLVNIVSCWamide (disulfide) [allatostatin C]				EC50 [3]: 1000 nM and 1200 nM
